Test results reported in patent US9115367B2, “Stomata-increasing agent, polypeptide, method for increasing number and/or density of stomata in plant, and method for increasing yield of plant” (KYOTO UNIVERSITY, priority 2009, dated 2015).
Where no end group is shown, it is not given here.

Experiments:
[1] = system: Arabidopsis thaliana {Lti6b-GFP line}; assay: Administration of synthetic stomagen to germinated seedlings (Example 6); format: in vivo
Protocol: The seeds of Arabidopsis thaliana {Lti6b-GFP line} were maintained in a B5 sterilized medium for germination. To the Lti6b-GFP line at 2 days after germination was administered the synthetic stomagen obtained in Example 5, so as to have a concentration of 300 nM. Thereafter, the Lti6b-GFP line was grown for 3 days at 22° C. Next, the cotyledon was collected. The surface was observed under a confocal microscope {manufactured by Zeiss, trade name: LSM510 META microscope}, to determine the number of stomata in a square area of 0.22 mm^2. Then, stomatal density was calculated. Here, statistical analysis was conducted by using R statistical analysis software. In addition, stomatal density was calculated by carrying out the same operation as described above with the use of an Lti6b-GFP line to which stomagen was not administered as a control. The result of examining the relationship between the amount of synthesized stomagen and stomatal density in Example 6 is shown in FIG. 27.

[2] = system: rice {strain “Nipponbare”}; assay: Administration of synthetic stomagen to rice seeds (Test Example 14); format: in vivo; details: 200 μL of 80 μM stomagen added to 5 mL water at seeding; abaxial epidermis of second leaf at 32 days after seeding; vs not administered
Protocol: The seeds of rice {strain “Nipponbare”} were seeded to a container {50-mL volume, manufactured by greiner} with 5 mL of desalted water, and thereafter 200 μL of 80 μM stomagen (the synthetic stomagen obtained in Example 5) was added thereto. Then, the seeds were maintained at 22° C. for 8 days. Thereafter, the resulting plant was grown at 22° C. in a B5 sterilized medium. The second leaves of rice at 32 days after seeding were collected. Then, the second leaves were fixed and made transparent, and then stomata were stained by carrying out the same operation as in Test Example 1. Thereafter, the abaxial epidermis of the second leaves was observed under a differential interference microscope {manufactured by Zeiss, trade name: Axioskop plus microscope}. The abaxial epidermis of the second leaves of the rice at 32 days after seeding was observed by carrying out the same procedure as in the above with the use of a rice to which stomagen was not administered as a control. A differential interference image of abaxial epidermis of the second leaf of the rice to which synthesized stomagen was administered in Test Example 14 is shown in FIG. 39 (a) and a differential interference image of abaxial epidermis of the second leaf of the rice to which synthesized stomagen was not administered in Test Example 14 is shown in FIG. 39 (b). In the figures, a framed part represents a stoma. […]

spch mutant = assay: Administration of purified recombinant stomagen to spch mutant (Test Example 9); format: in vivo, Arabidopsis thaliana; details: 2 μM administered to spch mutant at 2 days after germination, grown 3 days; abaxial epidermis of cotyledon
Protocol: The seeds of the spch mutant or the seeds of Arabidopsis thaliana Col-0 line (stock number: CS60000) {wild-type strain} were maintained in a B5 sterilized medium for germination. To the spch mutant or the wild-type strain at 2 days after germination was administered the purified recombinant stomagen obtained in Example 2, so as to have a concentration of 2 μM. Thereafter, the spch mutant or the wild-type strain was grown at 22° C. for 3 days. The abaxial epidermis of the cotyledon was observed under a confocal microscope {manufactured by Zeiss, trade name: LSM510 META microscope}. The abaxial epidermis of the cotyledons was observed by carrying out the same operation was carried out as described above with the use of a spch mutant line to which stomagen was not administered as a control. A confocal microscopic image of abaxial epidermis of the cotyledon of the spch mutant to which purified recombinant stomagen was not administered in Test Example 9 is shown in FIG. 28 (a), a confocal microscopic image of abaxial epidermis of the cotyledon of the spch mutant to which purified recombinant stomagen (2 μM) was administered in Test Example 9 is shown in FIG. 28 (b), and a confocal microscopic image of abaxial epidermis of the cotyledon of the wild-type strain to which purified recombinant stomagen (2 μM) was administered in Test Example 9 is shown in FIG. 28 (c).

[3] = system: Arabidopsis thaliana Col-0 line; assay: Heat and lyophilization treatment of stomagen, then stomatal density test (Test Example 16); format: in vivo; details: 60° C. for 5 minutes, 90° C. for 5 minutes or lyophilized; administered at 3 μM, cotyledon
Protocol: The chemically synthesized stomagen obtained in Example 5 was incubated at 60° C. for 5 minutes (sample number 3) or at 90° C. for 5 minutes (sample number 4). In addition, the chemically synthesized stomagen obtained in Example 5 was lyophilized (sample number 5).
The seeds of Arabidopsis thaliana Col-0 line (stock number: CS60000) were maintained and germinated in a B5 sterilized medium. To the Arabidopsis thaliana Col-0 line (stock number: CS60000) at 2 days after germination was administered the untreated stomagen (sample number 2), the stomagen incubated at 60° C. for 5 minutes (sample number 3), the stomagen incubated at 90° C. for 5 minutes (sample number 4), or the lyophilized stomagen (sample number 5), so as to have a concentration of 3 μM.
Thereafter, the Arabidopsis thaliana Col-0 line (stock number: CS60000) was grown at 22° C. for 3 days. Next, the cotyledon was collected, and the surface of the cotyledon was observed under a confocal microscope {manufactured by Zeiss, trade name: LSM510 META microscope}, to determine the number of stomata in a square area of 0.22 mm^2. Then, stomatal density was calculated. […] Stomatal density was calculated by carrying out the same operation as described above with the use of Arabidopsis thaliana Col-0 line (stock number: CS60000) to which stomagen was not administered as a control (sample number 1). […]

soybean (Kariyutaka) = assay: Addition of synthetic stomagen to soybean shoot apex (Example 8); format: in vivo; details: 1 μM, 10 μM or 100 μM added to shoot apex at second leaf stage, grown for a week
Protocol: The seeds of soybean (Kariyutaka) were seeded to a pot containing potting compost, germinated and then grown until the second leaf stage. Then, the synthetic stomagen obtained in Example 5 was added to the shoot apex, so as to have a concentration of 1 μM, 10 μM or 100 μM. Thereafter, the resulting plant was grown for a week and observed under a differential interference microscope {manufactured by Zeiss, trade name: Axioskop plus microscope}, to determine the number of stomata in a square area of 0.22 mm^2. Then, stomatal density was calculated. Here, statistical analysis was conducted using R statistical analysis software. […] In the figure, an open triangle, an open square and an open circle each show a different plant.

[4] = system: Arabidopsis thaliana {Lti6b-GFP line}; assay: Administration of purified recombinant stomagen to germinated seedlings (Example 4); format: in vivo
Protocol: Seeds of Arabidopsis thaliana {Lti6b-GFP line} were maintained in a B5 sterilized medium {manufactured by NIHON PHARMACEUTICAL CO., LTD, catalogue number: 399-00621} for germination. To the Lti6b-GFP line at 2 days after germination was administered the purified recombinant stomagen obtained in Example 2, so as to have a concentration of 2 μM. Thereafter, the Lti6b-GFP line was grown for 3 days at 22° C. The abaxial epidermis of the cotyledons was observed under a confocal microscope. The same operation was carried out as described above, using as a control an Lti6b-GFP line to which stomagen was not administered. The abaxial epidermis of the cotyledons was observed. A confocal microscopic image of abaxial epidermis of the cotyledon of the Lti6b-GFP-expressing line to which the purified recombinant stomagen was not administered in Example 4 is shown in FIG. 26 (a) and a confocal microscopic image of abaxial epidermis of the cotyledon of the Lti6b-GFP-expressing line to which the purified recombinant stomagen (2 μM) was administered in Example 4 is shown in FIG. 26 (b). In the figures, a scale bar represents 50 μm.

[5] = 2 μM at 2 days after germination, grown 3 days at 22° C., abaxial epidermis of cotyledon, vs not administered

Substance: synthetic stomagen: chemically synthesized polypeptide (45 amino acids) comprising 58th to 102nd amino acid residues of SEQ ID NO: 1, refolded by dialysis (IGSTAPTCTYNECRGCRYKCRAEQVPVEGNDPINSAYHYRCVCHR; also: refolded by dialysis, disulfide pairing not given here; listed as Arabidopsis thaliana)
- stomatal density ([1]; 300 nM at 2 days after germination, grown 3 days at 22° C., abaxial epidermis of cotyledon, vs not administered): increases
- stomatal density, concentration dependence ([1]; chemically synthesized stomagen): concentration-dependently increase
- number of stomata [2]: increase
- stomatal density [2]: increase

Substance: stomagen: polypeptide comprising the amino acid sequence shown in SEQ ID NO: 6; 45-amino-acid peptide having six cysteine residues (IGSTAPTCTYNECRGCRYKCRAEQVPVEGNDPINSAYHYRCVCHR; listed as Arabidopsis thaliana)
- stomata (spch mutant): do not increase
- stability to heat and drying (stomatal density after treatment) [3]: stable to heat and drying
- relationship between stomagen concentration and stomatal density (soybean (Kariyutaka)): positive correlation

Substance: purified recombinant stomagen: stomagen expressed in tobacco-cultured BY-2 cells and purified from culture supernatant by reversed-phase HPLC (IGSTAPTCTYNECRGCRYKCRAEQVPVEGNDPINSAYHYRCVCHR; Stomagen; UniProt Q9SV72 58-102, looked up)
- number of stomata [4, 5]: increased
- stomatal density [4, 5]: increased
- stomatal density, concentration dependence ([4]; recombinant stomagen expressed in BY-2 cells): concentration-dependently increase
